Source: US10023558B2, “Compounds” (CHIESI FARMACEUTICI S.P.A., priority 2016, dated 2018)

Biological target: T1, human neutrophil elastase (HNE) (Homo sapiens, UniProt P08246)
T1 construct: purchased Sigma E8140
T1 sequence (P08246 30-247 limits assumed): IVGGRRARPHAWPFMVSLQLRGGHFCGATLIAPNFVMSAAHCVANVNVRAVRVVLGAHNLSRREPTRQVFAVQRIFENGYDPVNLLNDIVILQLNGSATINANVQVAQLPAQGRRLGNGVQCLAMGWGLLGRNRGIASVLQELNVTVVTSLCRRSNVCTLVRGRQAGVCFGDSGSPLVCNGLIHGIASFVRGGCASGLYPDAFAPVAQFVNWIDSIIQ
Test: HNE Enzyme Assay (fluorogenic peptide substrate MeOSuc-Ala-Ala-Pro-Val-AMC)
Assay type: biochemical
Details: human leukocyte elastase 0.00072 U/mL, substrate 100 μM, 25° C., 30 minutes, at least two separate experiments; read-out: HNE inhibition (IC50 values)
Method: Compounds of this invention were tested for potency in a human neutrophil elastase (HNE) enzyme activity assay.
Assays were performed in 96-well plates in a total assay volume of 100 μL. The final concentration of elastase enzyme (human leukocyte elastase, Sigma E8140) was 0.00072 U/mL. The peptide substrate (MeOSuc-Ala-Ala-Pro-Val-AMC, Calbiochem #324740) was used at a final concentration of 100 μM. The final concentration of DMSO was 1% in the assay buffer (0.05M Tris.HCl, 0.1M NaCl, 0.1M CaCl2, 0.0005% Brij-35, pH 7.5). The enzymatic reaction was started by addition of the enzyme and incubated at 25° C. for 30 minutes. After incubation, the reaction was stopped by addition of soybean trypsin inhibitor (Sigma T9003) at a final concentration of 50 μg/well. Fluorescence was measured using a Molecular Devices fluorescence plate reader using 380 nm excitation and 460 nm emission wavelengths.
A concentration response to each compound was performed and the effect of compound in each experiment was expressed as a percentage inhibition of the control enzyme fluorescence. Dose response curves were plotted and compound potency (IC50) was determined. Compounds were tested in at least two separate experiments.

Row | Compound | IC50 [nM]
1 | Cc1c(-c2ccnn2-c2ccc(C#N)cc2)n(C(=O)NC(C)C2CC[N+](C)(C)CC2)c(=O)n1-c1cccc(C(F)(F)F)c1 (stereo not shown) [Example 35, 4-(1-{[5-[2-(4-Cyano-phenyl)-2H-pyrazol-3-yl]-4-methyl-2-oxo-3-(3-trifluoromethyl-phenyl)-2,3-dihydro-imidazole-1-carbonyl]-amino}-ethyl)-1,1-dimethyl-piperidinium benzene sulfonate] | < 1
2 | Cc1c(-c2ccnn2-c2ccc(C#N)cc2)n(C(=O)N[C@H]2C[C@H]3CC[C@@H](C2)[N+]3(C)C)c(=O)n1-c1cccc(C(F)(F)F)c1 [Example 36, (1S,3R,5R)-3-{[5-[2-(4-Cyano-phenyl)-2H-pyrazol-3-yl]-4-methyl-2-oxo-3-(3-trifluoromethyl-phenyl)-2,3-dihydro-imidazole-1-carbonyl]-amino}-8,8-dimethyl-8-azonia-bicyclo[3.2.1]octane benzene sulfonate] | < 1
3 | Cc1c(-c2ccnn2-c2ccc(C#N)cc2)n(C(=O)N[C@@H]2C[C@@H]3C[N+](C)(C)C[C@@H]3C2)c(=O)n1-c1cccc(C(F)(F)F)c1 [Example 37, (3aS,5R,6aR)-5-{[5-[2-(4-Cyano-phenyl)-2H-pyrazol-3-yl]-4-methyl-2-oxo-3-(3-trifluoromethyl-phenyl)-2,3-dihydro-imidazole-1-carbonyl]-amino}-2,2-dimethyl-octahydro-cyclopenta[c]pyrrolium benzene sulfonate] | < 1
4 | Cc1c(-c2ccnn2-c2ccc(C#N)cc2)n(C(=O)N[C@@H](C)c2cc[n+](C)cc2)c(=O)n1-c1cccc(C(F)(F)F)c1 [Example 38, 4-((S)-1-{[5-[2-(4-Cyano-phenyl)-2H-pyrazol-3-yl]-4-methyl-2-oxo-3-(3-trifluoromethyl-phenyl)-2,3-dihydro-imidazole-1-carbonyl]-amino}-ethyl)-1-methyl-pyridinium benzene sulfonate] | < 1
5 | Cc1c(-c2ccnn2-c2ccc(C#N)cc2)n(C(=O)N[C@@H]2C[C@H]3CC[C@@H](C2)[N+]3(C)C)c(=O)n1-c1cccc(C(F)(F)F)c1 [Example 39, (1R,3S,5S)-3-{[5-[2-(4-Cyano-phenyl)-2H-pyrazol-3-yl]-4-methyl-2-oxo-3-(3-trifluoromethyl-phenyl)-2,3-dihydro-imidazole-1-carbonyl]-amino}-8,8-dimethyl-8-azonia-bicyclo[3.2.1]octane benzene sulfonate] | < 1
6 | CC[N+]1(CC)CCC(NC(=O)n2c(-c3ccnn3-c3ccc(C#N)cc3)c(C)n(-c3cccc(C(F)(F)F)c3)c2=O)CC1 [Example 40, 4-{[5-[2-(4-Cyano-phenyl)-2H-pyrazol-3-yl]-4-methyl-2-oxo-3-(3-trifluoromethyl-phenyl)-2,3-dihydro-imidazole-1-carbonyl]-amino}-1,1-diethyl-piperidinium benzene sulfonate] | < 1
7 | Cc1c(-c2ccnn2-c2ccc(C#N)cc2)n(C(=O)N[C@H]2CC[C@H]([N+](C)(C)C)CC2)c(=O)n1-c1cccc(C(F)(F)F)c1 [Example 41, (Trans-4-{[5-[2-(4-cyano-phenyl)-2H-pyrazol-3-yl]-4-methyl-2-oxo-3-(3-trifluoromethyl-phenyl)-2,3-dihydro-imidazole-1-carbonyl]-amino}-cyclohexyl)-trimethyl-ammonium benzene sulfonate] | < 1
8 | CC[n+]1ccc([C@H](C)NC(=O)n2c(-c3ccnn3-c3ccc(C#N)cc3)c(C)n(-c3cccc(C(F)(F)F)c3)c2=O)cc1 [Example 42, 4-((S)-1-{[5-[2-(4-Cyano-phenyl)-2H-pyrazol-3-yl]-4-methyl-2-oxo-3-(3-trifluoromethyl-phenyl)-2,3-dihydro-imidazole-1-carbonyl]-amino}-ethyl)-1-ethyl-pyridinium benzene sulfonate] | < 1
9 | Cc1c(-c2ccnn2-c2ccc(C#N)cc2)n(C(=O)N[C@H]2CC[C@H]([N+](C)(C)Cc3ccccc3)CC2)c(=O)n1-c1cccc(C(F)(F)F)c1 [Example 43, Benzyl-(trans-4-{[5-[2-(4-cyano-phenyl)-2H-pyrazol-3-yl]-4-methyl-2-oxo-3-(3-trifluoromethyl-phenyl)-2,3-dihydro-imidazole-1-carbonyl]-amino}-cyclohexyl)-dimethyl-ammonium bromide] | < 1
10 | CC[N+](C)(C)[C@H]1CC[C@H](NC(=O)n2c(-c3ccnn3-c3ccc(C#N)cc3)c(C)n(-c3cccc(C(F)(F)F)c3)c2=O)CC1 [Example 44, (Trans-4-{[5-[2-(4-cyano-phenyl)-2H-pyrazol-3-yl]-4-methyl-2-oxo-3-(3-trifluoromethyl-phenyl)-2,3-dihydro-imidazole-1-carbonyl]-amino}-cyclohexyl)-ethyl-dimethyl-ammonium benzene sulfonate] | < 1
11 | Cc1c(-c2ccnn2-c2ccc(C#N)cc2)n(C(=O)N[C@H]2CC[C@@H]([N+](C)(C)C)CC2)c(=O)n1-c1cccc(C(F)(F)F)c1 [Example 45, (Cis-4-{[5-[2-(4-cyano-phenyl)-2H-pyrazol-3-yl]-4-methyl-2-oxo-3-(3-trifluoromethyl-phenyl)-2,3-dihydro-imidazole-1-carbonyl]-amino}-cyclohexyl)-trimethyl-ammonium benzene sulfonate] | 1 to 10
12 | Cc1c(-c2ccnn2-c2ccc(C#N)cc2)n(C(=O)N[C@H]2CC[C@@H]([N+](C)(C)Cc3ccccc3)CC2)c(=O)n1-c1cccc(C(F)(F)F)c1 [Example 46, Benzyl-(cis-4-{[5-[2-(4-cyano-phenyl)-2H-pyrazol-3-yl]-4-methyl-2-oxo-3-(3-trifluoromethyl-phenyl)-2,3-dihydro-imidazole-1-carbonyl]-amino}-cyclohexyl)-dimethyl-ammonium bromide] | 1 to 10
13 | Cc1c(-c2ccnn2-c2ccc(C#N)cc2)n(C(=O)NC(C)(C)c2cc[n+](C)cc2)c(=O)n1-c1cccc(C(F)(F)F)c1 [Example 47, 4-(1-{[5-[2-(4-Cyano-phenyl)-2H-pyrazol-3-yl]-4-methyl-2-oxo-3-(3-trifluoromethyl-phenyl)-2,3-dihydro-imidazole-1-carbonyl]-amino}-1-methyl-ethyl)-1-methyl-pyridinium benzene sulfonate] | < 1
14 | CC[N+](C)(C)[C@H]1CC[C@@H](NC(=O)n2c(-c3ccnn3-c3ccc(C#N)cc3)c(C)n(-c3cccc(C(F)(F)F)c3)c2=O)CC1 [Example 48, (Cis-4-{[5-[2-(4-cyano-phenyl)-2H-pyrazol-3-yl]-4-methyl-2-oxo-3-(3-trifluoromethyl-phenyl)-2,3-dihydro-imidazole-1-carbonyl]-amino}-cyclohexyl)-ethyl-dimethyl-ammonium benzene sulfonate] | 1 to 10
15 | Cc1c(-c2ccnn2-c2ccc(C#N)cc2)n(C(=O)N[C@@H](C)C(=O)N2CC[N+](C)(Cc3ccccc3)CC2)c(=O)n1-c1cccc(C(F)(F)F)c1 [Example 49, 1-Benzyl-4-((S)-2-{[5-[2-(4-cyano-phenyl)-2H-pyrazol-3-yl]-4-methyl-2-oxo-3-(3-trifluoromethyl-phenyl)-2,3-dihydro-imidazole-1-carbonyl]-amino}-propionyl)-1-methyl-piperazin-1-ium bromide] | < 1
16 | Cc1c(-c2ccnn2-c2ccc(C#N)cc2)n(C(=O)N[C@@H](C)C(=O)N2CC[N+](C)(C)CC2)c(=O)n1-c1cccc(C(F)(F)F)c1 [Example 50, 4-((S)-2-{[5-[2-(4-Cyano-phenyl)-2H-pyrazol-3-yl]-4-methyl-2-oxo-3-(3-trifluoromethyl-phenyl)-2,3-dihydro-imidazole-1-carbonyl]-amino}-propionyl)-1,1-dimethyl-piperazin-1-ium benzene sulfonate] | < 1
17 | Cc1c(-c2ccnn2-c2ccc(C#N)cc2)n(C(=O)NC2CC3(CC[N+](C)(C)CC3)C2)c(=O)n1-c1cccc(C(F)(F)F)c1 [Example 51, 2-{[5-[2-(4-Cyano-phenyl)-2H-pyrazol-3-yl]-4-methyl-2-oxo-3-(3-trifluoromethyl-phenyl)-2,3-dihydro-imidazole-1-carbonyl]-amino}-7,7-dimethyl-7-azonia-spiro[3.5]nonane benzene sulfonate] | < 1
18 | Cc1c(-c2ccnn2-c2ccc(C#N)cc2)n(C(=O)N[C@H](C)c2cc[n+](C)cc2)c(=O)n1-c1cccc(C(F)(F)F)c1 [Example 52, 4-((R)-1-{[5-[2-(4-Cyano-phenyl)-2H-pyrazol-3-yl]-4-methyl-2-oxo-3-(3-trifluoromethyl-phenyl)-2,3-dihydro-imidazole-1-carbonyl]-amino}-ethyl)-1-methyl-pyridinium benzene sulfonate] | 1 to 10
19 | Cc1c(-c2ccnn2-c2ccc(C#N)cc2)n(C(=O)N[C@H]2CC[C@@H](C[N+](C)(C)C)CC2)c(=O)n1-c1cccc(C(F)(F)F)c1 [Example 53, (Cis-4-{[5-[2-(4-cyano-phenyl)-2H-pyrazol-3-yl]-4-methyl-2-oxo-3-(3-trifiuoromethyl-phenyl)-2,3-dihydro-imidazole-1-carbonyl]-amino}-cyclohexylmethyl)-trimethyl-ammonium benzene sulfonate] | 1 to 10
